Results from US20260294838A1, “ACTIVATION ENHANCER AND FOOD AND DRINK FOR ENHANCING ACTIVATION” (Asahi Group Holdings, Ltd., priority 2023, published 2026).

Key:
[1] = tested on: brain blood flow; conditions: humans exposed to nerol and geraniol (aroma components of lemongrass extract); cited from earlier work
[2] = tested on: rats; conditions: cited from earlier work
[3] = tested on: EEG; assay: Reference Example: EEG test in the same manner as in Test Example 4; type: in vivo, human (healthy Japanese men and women, 20 to 39 years old); conditions: 10-ppm aqueous solution, same manner as Test Example 4 (EEG), 20 subjects
Method: Each subject was instructed to wear an electroencephalograph (model number: HARU-2, manufactured by PGV Co., Ltd.), and to wait for 5 minutes at rest, and then asked to answer a questionnaire for one minute. Subsequently, each subject was instructed to ingest 200 mL of the test beverage within 5 minutes, and thereafter, to wait at rest except for answering the questionnaire for one minute immediately after the ingestion, 15 minutes after the ingestion, 30 minutes after the ingestion and 45 minutes after the ingestion. The EEG were measured from before the ingestion of the test beverage until 45 minutes after the ingestion. The same measurement was carried out one more time. The beverage to be ingested was selected at random for each subject, and each subject was instructed to ingest each beverage once.
In the analysis of EEG, the data obtained during the questionnaires and the ingestion that affect the EEG were excluded from the analysis target. The EEG measured during each waiting time at rest before and after the ingestion were analyzed using the MNE library (ver. 1.3.0) in Python language, and the B/a ratio was calculated from the two-minute data. No exclusion of target data was allowed, and all cases were analyzed as the target.
The test was carried out in the same manner as in Test Example 4, using a 10-ppm aqueous solution of each of: geraniol, which is the isomer of nerol; α-terpineol, which is a degradation product of nerol; and linalool, on 20 healthy Japanese men and women with ages ranging from 20 years old to 39 years old, as the subjects. As a result, the effect of enhancing activation was not observed in any of geraniol, α-terpineol and linalool.

SMILES	amount of brain blood flow [1]	acceptable daily intake (ADI) per person ([2]; calculated, assuming an adult with a body weight of 50 kg)	acceptable daily intake (ADI) ([2]; calculated)	no-observed adverse effect level (NOAEL), lowest value ([2]; repeated dose toxicity study on rats)	effect of enhancing activation [3]
CC(C)=CCC/C(C)=C\CO [nerol, (Z)-3,7-dimethyl-2,6-octadien-1-ol]	increased significantly	95.5 mg/person/day	1.91 mg/kg/day	191 mg/kg/day	–
CC(C)=CCC/C(C)=C/CO [geraniol]	increased significantly	–	–	–	not observed
C=CC(C)(O)CCC=C(C)C (centres unmarked) [linalool]	–	–	–	–	not observed
CC1=CCC(C(C)(C)O)CC1 (stereo not drawn) [α-terpineol]	–	–	–	–	not observed
